Tested on: Root Knot Nematodes
Experiment: Nematicide assay: control of Root Knot Nematode galling on host plant roots
Format: in vivo
Details: drip application, 4-day-old host plant, assessed after 8 days; for pest or weed control at 500 ppm / pest or weed control at 100 ppm: 192 h, read-out: control efficacy (decrease of nematode gall formation on roots compared to the inoculated control)
Method: Test compounds were formulated using a solution containing 25% acetone and 75% water. The formulated compounds were applied in 330 μl of liquid through a drip applicator that was positioned above the top of each test unit. Test compounds were applied at 500 ppm and 100 ppm and each test was replicated three times. For evaluating control of Root Knot Nematodes the test unit consisted of a small open container with a 4-day-old host plant inside. The formulated compounds were dripped into the container and the nematodes were applied following the compound's application. The test units were held for 8 days in a growth chamber at 29.4° C. or 85 F. Root invasion by the nematodes was then visually assessed based on presence or absence of galls on the roots.

SMILES | pest or weed control at 500 ppm (500 ppm) [%] | control efficacy (decrease of nematode gall formation on roots compared to the inoculated control) (500 ppm) [%] | further results
O=C(NCCn1nc(C(F)(F)F)n(CC(F)(F)F)c1=O)c1ccccc1C(F)(F)F [Compound 1] | 100 | – | –
O=C(NCCn1nc(C(F)(F)F)n(C2CC2)c1=O)c1ccccc1C(F)(F)F [Compound 2] | 100 | – | –
CC(C)n1c(C(F)F)nn(CCNC(=O)c2ccccc2C(F)(F)F)c1=O [Compound 9] | 100 | – | –
CC(C)(C)n1c(C(F)(F)F)nn(CCNC(=O)c2ccccc2C(F)(F)F)c1=O [Compound 10, N-[2-[4-(1,1-Dimethylethyl)-4,5-dihydro-5-oxo-3-(trifluoromethyl)-1H-1,2,4-triazol-1-yl]ethyl]-2-(trifluoromethyl)benzamide] | 100 | – | –
CC(C)n1c(C(F)(F)F)nn(CCNC(=O)c2ccccc2C(F)(F)F)c1=O [Compound 11] | 100 | – | –
CCn1c(C(F)(F)F)nn(CCNC(=O)c2ccccc2C(F)(F)F)c1=O [Compound 12] | 100 | – | –
Cn1c(C(F)(F)F)nn(CCNC(=O)c2ccccc2C(F)(F)F)c1=O [Compound 14, N-[2-[4,5-Dihydro-4-methyl-5-oxo-3-(trifluoromethyl)-1H-1,2,4-triazol-1-yl]ethyl]-2-(trifluoromethyl)benzamide] | 100 | – | –
O=C(NCCn1nc(C(F)(F)F)n(CC(F)(F)F)c1=O)c1ccccc1Cl [Compound 30] | 100 | – | –
CC(C)n1c(C(F)(F)F)nn(CCNC(=O)c2ccccc2Cl)c1=O [Compound 31] | 100 | – | –
O=C(NCCn1nc(C(F)(F)F)n(CC2CC2)c1=O)c1ccccc1C(F)(F)F [Compound 32, N-[2-[4-(Cyclopropylmethyl)-4,5-dihydro-5-oxo-3-(trifluoromethyl)-1H-1,2,4-triazol-1-yl]ethyl]-2-(trifluoromethyl)benzamide] | 100 | – | –
CC(C)(C)n1c(C(F)(F)F)nn(CCNC(=O)c2ccccc2Cl)c1=O [Compound 38, 2-Chloro-N-[2-[4-(1,1-dimethylethyl)-4,5-dihydro-5-oxo-3-(trifluoromethyl)-1H-1,2,4-triazol-1-yl]ethyl]benzamide] | 100 | – | –
CC1(n2c(C(F)(F)F)nn(CCNC(=O)c3ccccc3C(F)(F)F)c2=O)CC1 [Compound 45] | 100 | – | –
CC(C)(C)n1c(C(F)(F)F)nn(CCNC(=O)c2ccccc2Br)c1=O [Compound 50, 2-Bromo-N-[2-[4-(1,1-dimethylethyl)-4,5-dihydro-5-oxo-3-(trifluoromethyl)-1H-1,2,4-triazol-1-yl]ethyl]benzamide] | 100 | – | –
O=C(NCCn1nc(C(F)(F)F)n(C2CC2)c1=O)c1ccccc1Cl [Compound 59] | 100 | – | –
CC(C)(C)n1c(C(F)(F)F)nn(CCNC(=O)c2cccnc2Cl)c1=O [Compound 92, 2-Chloro-N-[2-[4-(1,1-dimethylethyl)-4,5-dihydro-5-oxo-3-(trifluoromethyl)-1H-1,2,4-triazol-1-yl]ethyl]-3-pyridinecarboxamide] | 100 | – | pest or weed control at 100 ppm (100 ppm): 100%
CC(C)(C)n1c(C(F)(F)F)nn(CCNC(=O)c2cccnc2C(F)(F)F)c1=O [Compound 93] | 100 | – | –
CC(C)(C)n1c(C(F)(F)F)nn(CCNC(=O)c2c(F)cccc2C(F)(F)F)c1=O [Compound 128] | – | 100 | –

SMILES | pest or weed control at 500 ppm (500 ppm) [%] | control efficacy (decrease of nematode gall formation on roots compared to the inoculated control) (500 ppm) [%] | further results
CC(C)(n1c(C(F)(F)F)nn(CCNC(=O)c2ccccc2Br)c1=O)C(F)(F)F [Compound 133] | – | 100 | control efficacy (decrease of nematode gall formation on roots compared to the inoculated control) (100 ppm): 100%
Cc1ccccc1C(=O)NCCn1nc(C(F)(F)F)n(C(C)(C)C(F)(F)F)c1=O [Compound 135] | – | 100 | –
O=C(NCCn1nc(C(F)(F)F)n(C2(C(F)(F)F)CCC2)c1=O)c1ccccc1C(F)(F)F [Compound 139] | – | 100 | –
O=C(NCCn1nc(C(F)(F)F)n(C2(C(F)(F)F)CCC2)c1=O)c1ccccc1Br [Compound 142] | – | 100 | –
O=C(NCCn1nc(C(F)(F)F)n(C2CC(F)(F)C2)c1=O)c1ccccc1Br [Compound 143] | – | 100 | –
O=C(NCCn1nc(C(F)(F)F)n(C2CC(F)(F)C2)c1=O)c1ccccc1C(F)(F)F [Compound 145] | – | 100 | control efficacy (decrease of nematode gall formation on roots compared to the inoculated control) (100 ppm): 100%
O=C(NCCn1nc(C(F)(F)F)n(C2CC(F)(F)C2)c1=O)c1ccccc1Cl [Compound 148] | – | 100 | control efficacy (decrease of nematode gall formation on roots compared to the inoculated control) (100 ppm): 100%
O=C(NCCn1nc(C(F)(F)F)n(C2(C(F)(F)F)CCC2)c1=O)c1ccccc1Cl [Compound 149] | – | 100 | –
CC(C)(n1c(C(F)(F)F)nn(CCNC(=O)c2ncccc2C(F)(F)F)c1=O)C(F)(F)F [Compound 160] | – | 100 | –
CC(C)(n1c(C(F)(F)F)nn(CCNC(=O)c2cccnc2C(F)(F)F)c1=O)C(F)(F)F [Compound 165] | – | 100 | control efficacy (decrease of nematode gall formation on roots compared to the inoculated control) (100 ppm): 100%
CC(n1c(C(F)(F)F)nn(CCNC(=O)c2cccnc2Cl)c1=O)C(F)(F)F (centres unmarked) [Compound 166] | – | 100 | –
O=C(NCCn1nc(C(F)(F)F)n(C2(C(F)(F)F)CCC2)c1=O)c1cccnc1C(F)(F)F [Compound 169] | 100 | – | –
O=C(NCCn1nc(C(F)(F)F)n(C2(C(F)(F)F)CCC2)c1=O)c1cccnc1Cl [Compound 170] | 100 | – | –
CC(C)(n1c(C(F)(F)F)nn(CCNC(=O)c2cccnc2Cl)c1=O)C(F)(F)F [Compound 171] | – | 100 | control efficacy (decrease of nematode gall formation on roots compared to the inoculated control) (100 ppm): 100%
O=C(NCCn1nc(C(F)(F)F)n(C2CC(F)(F)C2)c1=O)c1cccnc1C(F)(F)F [Compound 173] | 100 | – | –
CC(n1c(C(F)(F)F)nn(CCNC(=O)c2cccnc2C(F)(F)F)c1=O)C(F)(F)F (centres unmarked) [Compound 175] | – | 100 | –
CC(C)(n1c(C(F)(F)F)nn(CCNC(=O)c2ccccc2C(F)(F)F)c1=O)C(F)(F)F [Compound 179, N-[2-[4,5-Dihydro-5-oxo-4-(2,2,2-trifluoro-1,1-dimethylethyl)-3-(trifluoromethyl)-1H-1,2,4-triazol-1-yl]ethyl]-2-(trifluoromethyl)benzamide] | 100 | – | pest or weed control at 100 ppm (100 ppm): 100%

Reference: US20230278966A1, “TRIAZOLONE COMPOUNDS FOR CONTROLLING INVERTEBRATE PESTS” (FMC Corporation, priority 2020, published 2023)
